The subject of one data set is Candida glabrata 20/I. Nature of the data set: In vitro antifungal susceptibility, broth microdilution. The data set is classed as cell-based. Conditions: Nakaseomyces glabratus, read-out: MIC (IC80) CG.
Data set [1] deals with photosynthetic electron transport (PET) in spinach chloroplasts. Briefly: Inhibition of photosynthetic electron transport (PET) in spinach chloroplasts. The data set is classed as biochemical, Spinacia oleracea L. As to conditions: DCPIP photoreduction. The method, boiled down:
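PET in spinach chloroplasts was followed spectrophotometrically as DCPIP photoreduction in pH 7.2 phosphate buffer with sucrose, MgCl2 and NaCl, at 30 mg/L chlorophyll, under halogen-lamp irradiation at 22 °C. Compounds were added in DMSO. IC50 is the molar concentration halving the rate relative to untreated control.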

Data set [2] in a line: Lipophilicity determination using RP-HPLC (capacity factor, log k). Type of data set: physicochemical. As to conditions: C18, MeOH 55%/H2O 45%. The method in brief: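 Isocratic RP-HPLC on a C18 column (5 μm, 4.6 × 250 mm), 55% MeOH/45% water at 0.9 mL/min, 30 °C, UV detection 210 nm. Dead time from KI; capacity factor k = (tR − tD)/tD, with log k taken as the lipophilicity index on log P scale.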

The subject of data set [3] is Trichosporon beigelii 1188. Briefly: In vitro antifungal susceptibility, broth microdilution. As to conditions: read-out: MIC (IC80) TB. The data set is classed as cell-based. The method, boiled down:
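Twofold dilutions (500 to 0.975 μmol/L final) in RPMI 1640 with MOPS, pH 7.0, per CLSI broth microdilution. MIC taken as IC80 for yeasts (M27-A2) or IC50 for moulds (M38-A) versus drug-free control, read after 24 and 48 h static incubation at 35 °C.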
A general note: Dilution methods test growth across graded concentrations, often in twofold steps.

For data set [4], the system named is HCT-116 human colon cancer cells (p53 wild type). Briefly: In vitro antiproliferative activity, MTS assay. The data set is classed as cell-based. Conditions: HCT-116, 72 h incubation, MTS, read-out: HCT-116 IC50. How it is done:
The antiproliferative activity of all of the compounds was examined against the human colon cancer (HCT-116) cell line using an MTS assay. The HCT-116 p53 wild type cell line was chosen on the basis of our former experience and some results on the activity of quinoline-based thiosemicarbazones that was published recently. Namely, compounds 4a–l have been tested previously for their wide-ranging anticancer activity. The antiproliferative activity of the compounds evaluated was assessed using Doxorubicin as a reference compound. In general, quinoline-based thiosemicarbazones 4 seem to have a much better anticancer activity than halogenophenyl compounds 3. Thus, the quinoline nucleus can be defined as being crucial for antiproliferative activity. A more detailed analysis of the anticancer activity of quinoline-based thiosemicarbazone is available. […] Nevertheless, some more general conclusions can be drawn from the gathered data. […] The free amino group or substitution pattern with small substituents such as methyl or ethyl are favorable for activity. According to our former results the chelating ability of the compounds may be one of the prerequisites of the antiproliferative activity. In this study we have measured the UV-VIS spectra of the compounds in presence of various concentration of Fe^3+ cations to observe its chelating potency (supplementary material). […] However as 4j give also two points at 330 and 385 nm, iron chelating ability should be regarded only as one of the factor influencing the biological activity.
The human colon cancer cell line HCT116 with the wild type p53 gene (p53^+/+) were obtained from Maria Sklodowska-Curie Memorial Cancer Center in Gliwice, Poland. Briefly, the cells were seeded in 96-well plates (3 × 10^3 cells/well) in cellular proliferation assays 24 h before the addition of the chelators. The assay was performed following a 72 h incubation with varying concentrations of the agents. Each compound was tested in triplicate in a single experiment with each experiment being repeated 3 times. After 72 h incubation with the compounds being investigated, 20 µL of MTS solution was added to each well (100 µL) and incubated for 1 h at 37 °C. The optical densities of the samples were analyzed at 490 nm. Results were expressed as a percentage of the control. The inhibitory concentration (IC50) was defined as the compound concentration necessary to reduce the absorbance to 50% of the untreated control.

The mark [5] stands for this setting: Trichosporon beigelii, 1188, 24 h.
Where [6] appears, read: Trichosporon beigelii, 1188, 48 h.

In brackets after ≈: the same amount, converted by molar mass. Where two headings read alike, the source gives them in different places.

On to `CN(C)C(=S)N/N=C/c1ccc(Cl)c(Cl)c1` [Compound 3h, (E)-2-(3,4-Dichlorobenzylidene)-N,N-dimethylhydrazinecarbothioamide], for which the minimal inhibitory concentration (MIC) (as a rule, the lowest concentration that inhibits growth of the organism) in the data set on Candida glabrata 20/I (24 h) worked out at 500 µM (≈ 138 µg/mL); with Candida glabrata 20/I (48 h), 500 µM (≈ 138 µg/mL); in data set [3] (setting [5]) it was 125 µM (≈ 34.5 µg/mL); in data set [3] (setting [6]) it was 500 µM (≈ 138 µg/mL). Moreover, the IC50 (usually the midpoint of a concentration-inhibition curve) in data set [1] stood at 329 µM; in data set [4], 47 ± 1.3 µM. In data set [2], the log k turned out to be 0.7555.

As for `NC(=S)N/N=C/c1ccc(Br)cc1` [Compound 3k, (E)-2-(4-Bromobenzylidene)hydrazinecarbothioamide], the MIC is more than 500 µM in the data set with Candida glabrata 20/I (24 h), more than 500 µM in the data set with Candida glabrata 20/I (48 h), 500 µM (≈ 129 µg/mL) in data set [3] (setting [5]) and 500 µM (≈ 129 µg/mL) in data set [3] (setting [6]). Besides, the IC50 in data set [1] is 586 µM; in data set [4] it was more than 60 µM. In addition, the log k in data set [2] was 0.6580.

Turning to `CN(C)C(=S)N/N=C/c1ccc(Br)cc1` [Compound 3m, (E)-2-(4-bromobenzylidene)-N,N-dimethylhydrazinecarbothioamide], the MIC in the data set with Candida glabrata 20/I (24 h) is more than 500 µM; with Candida glabrata 20/I (48 h) it was more than 500 µM; in data set [3] (setting [5]) it was 15.6 µM (≈ 4.47 µg/mL); in data set [3] (setting [6]), 62.5 µM (≈ 17.9 µg/mL). Besides, the IC50 in data set [1] came out at 595 µM; in data set [4], 47.5 ± 2.4 µM. Also, in data set [2], the log k was determined as 0.6784.

For the origin of these results see article PMC6268061, “Investigation of the Biological Properties of (Hetero)Aromatic Thiosemicarbazones” (Molecules, 2012).
